SMILES strings stand for the structures.

Experiment [1] concerns production of PGF2α in A549 cells. The experiment in a line: Inhibition of PGF2α production in IL-1β-stimulated A549 cells (EIA), selectivity. To be noted: Homo sapiens; for inhibition at 10 µM: compound at 10 μm; for IC50: IL-1β-stimulated, read-out: pIC50 PGF2α (converted). The experiment is classed as cell-based. The source says:
(§1) The test used makes it possible to evaluate the inhibitory capacity of the test compounds on the production of PGE2 and the selectivity relative to the production of PGF2α. The human pulmonary adenocarcinoma cell line A549 was used, which is particularly sensitive to stimulation with proinflammatory cytokines, for instance IL-1β, and, in response to this stimulation, is particularly active in the production and release of two prostanoids: PGE2 and PGF2α (Thoren S. Jakobsson P-J, 2000).
(§2) The cells were stimulated with IL-1β (10 ng/ml) and simultaneously treated with the test compound for 22 hours in a suitable culture medium (DMEM—Dulbecco's Modified Eagles Medium) enriched with 5% fetal calf serum and L-glutamine (4 mM final) in an incubator at 37° C. and with a CO2 concentration of 5%.
(§3) At the end of the incubation, the amount of PGE2 and PGF2α, produced and released into the supernatant were assayed using an EIA kit (produced and sold by Cayman Chemicals, Ann Arbor, Mich., USA).
(§4) The comparative compound used was indomethacin at a concentration of 10 nM (Sigma-Aldrich), which is a non-steroidal anti-inflammatory drug that inhibits in equal measure both PGE2 and PGF2α.
(§5) For illustrative purposes, Table 3 collates the pIC50 values of a number of compounds of the invention, where pIC50 represents the negative logarithm of the IC50, which, in turn, represents the concentration of compound that inhibits the production of PGE2 or PGF2α by 50% relative to cells that are stimulated but not treated with the same compound.

In experiment [2] the test system is production of PGE2 in A549 cells (mPGES-1). In words: Inhibition of PGE2 production in IL-1β-stimulated A549 cells (EIA). The experiment is classed as cell-based. To be noted: Homo sapiens; for IC50: IL-1β-stimulated, read-out: pIC50 PGE2 (converted); for inhibition at 10 µM: compound at 10 μm.
From the text: as §1, §2, §3, §4, §5

Experiment [3] has as its system production of PGE2 in U-937 cells (cPGES). In words: Inhibition of basal PGE2 production in U-937 cells (selectivity between isoforms of PGES). The experiment is classed as cell-based. To be noted: Homo sapiens, basal conditions; for inhibition at 10 µM: compound at 10 μM. An excerpt:
The test used makes it possible to evaluate the capacity of the compounds of the invention to inhibit the production of PGE2 in a human lymphoma cell line U-937 that preferentially expresses an enzymatic isoform (cPGES), which is responsible for the production of PGE2 under basal conditions, in the absence of pro-inflammatory stimuli. This enzymatic form is different from the one predominantly expressed in the A549 cells (mPGES-1) after a pro-inflammatory stimulus.
The absence of inhibitory activity on PGE2 in this cell model ensures the selectivity of the compound compared with the enzymatic form responsible for the production of PGE2 in the presence of inflammatory stimuli.
The reference compound used was indomethacin at a concentration of 10 nM.

The test system of experiment [4] is acetic acid-induced stretching in mice. The experiment in a line: Acetic acid-induced stretching in mice (inflammatory pain). The experiment is classed as in vivo. Conditions: female CD-1 mice; for No. of stretches: 20 minutes after acetic acid, vehicle 52; for % inhibition (stretches): vs vehicle (MTC). As to the method:
The test compound was evaluated in the model of acetic acid-induced stretching in mice (Stock J. L. et al., J Clin Inv 2001, 107: 325-331). This test makes it possible to evaluate the antinociceptive activity of the compounds of the invention in a model of inflammatory pain.
Female CD-1 mice weighing 25-30 g were used for the test. The animals were treated intraperitoneally with the test compound (0.1-10 mg/kg) suspended in methylcellulose (MTC). The control animals were treated with the vehicle alone (MTC) via the same route.
30 minutes after the treatment, the animals received an intraperitoneal injection of acetic acid (0.7 v/v in physiological solution, 16 μl/g of body weight) in order to induce inflammatory pain and to check the effects of the test compound on the nociceptive response.
Immediately after the administration of acetic acid and for the following 20 minutes, the number of stretches, which represents the parameter for evaluation of the nociceptive response, was measured.

[5] abbreviates: indomethacin at 10 nM, IL-1β 10 ng/ml, 22 hours.

For orientation: inhibition means the percentage by which the read-out fell short of the control. As to `CCn1c(-c2ccc(F)cc2)cc2cc(NC(=O)c3ccccc3Cl)ccc21` [Compound 6], the inhibition at 10 µM in experiment [1] (IL-1β 10 ng/ml, 22 hours) is < 20%; in experiment [2] (IL-1β 10 ng/ml, 22 hours) it was 82%; in experiment [3] it was < 20%. Besides, the IC50 in experiment [2] is 1.58 µM.
As to `CCn1c(-c2ccccc2)cc2cc(NC(=O)c3ccccc3Cl)ccc21` [Compound 2], the inhibition at 10 µM is < 20% in experiment [1] (IL-1β 10 ng/ml, 22 hours); 76% in experiment [2] (IL-1β 10 ng/ml, 22 hours); < 20% in experiment [3]. The results for the No. of stretches in experiment [4] (0.1 mg/kg intraperitoneally), in experiment [4] (1 mg/kg intraperitoneally) and in experiment [4] (10 mg/kg intraperitoneally) were 38, 36 and 25, respectively. Further, the “% inhibition (stretches)” value came to 27% in experiment [4] (0.1 mg/kg intraperitoneally), 31% in experiment [4] (1 mg/kg intraperitoneally) and 52% in experiment [4] (10 mg/kg intraperitoneally). Also, the IC50 in experiment [2] was 2 µM.
Take `CCn1c(-c2cccc(C)c2)cc2cc(NC(=O)c3ccccc3Cl)ccc21` [Compound 19]: the IC50 in experiment [1] was 100 µM; in experiment [2] it was 1 µM. In addition, the inhibition at 10 µM was 43% in experiment [1] (IL-1β 10 ng/ml, 22 hours); 87% in experiment [2] (IL-1β 10 ng/ml, 22 hours); < 20% in experiment [3].
For `CCn1c(-c2ccc(C)cc2)cc2cc(NC(=O)c3ccccc3Cl)ccc21` [Compound 20], in that order: > 100 µM, 3.16 µM, < 20%, 75% and < 20%.
For the compound `CCn1c(-c2cccc(Cl)c2C)cc2cc(NC(=O)c3ccccc3Cl)ccc21` [Compound 28], the inhibition at 10 µM in experiment [1] (IL-1β 10 ng/ml, 22 hours) is < 20%; in experiment [2] (IL-1β 10 ng/ml, 22 hours), 65%.
In the case of `CCn1c(-c2ccc(Cl)c(C)c2)cc2cc(NC(=O)c3ccccc3Cl)ccc21` [Compound 25], the inhibition at 10 µM is < 20% in experiment [1] (IL-1β 10 ng/ml, 22 hours) and 89% in experiment [2] (IL-1β 10 ng/ml, 22 hours).
Regarding `CCn1c(-c2ccccc2)cc2cc(NC(=O)c3ccccc3C(F)(F)F)ccc21` [Compound 9], the figures for the IC50 in experiment [1] and in experiment [2] were 50.1 µM and 1.26 µM, respectively. For the same compound, the inhibition at 10 µM was < 20% in experiment [1] (IL-1β 10 ng/ml, 22 hours); 100% in experiment [2] (IL-1β 10 ng/ml, 22 hours); < 20% in experiment [3].
With `CCOc1ccc(-c2cc3cc(NC(=O)c4ccccc4Cl)ccc3n2CC)cc1` [Compound 21], the inhibition at 10 µM was < 20% in experiment [1] (IL-1β 10 ng/ml, 22 hours) and 66% in experiment [2] (IL-1β 10 ng/ml, 22 hours).
For `CCn1c(-c2ccccc2)cc2cc(NC(=O)c3cc([N+](=O)[O-])ccc3Cl)ccc21` [Compound 12], in that order: < 20% and 75%.
Take `CCn1c(-c2ccccc2C)cc2cc(NC(=O)c3ccccc3Cl)ccc21` [Compound 18]: the inhibition at 10 µM was < 20% in experiment [1] (IL-1β 10 ng/ml, 22 hours); 66% in experiment [2] (IL-1β 10 ng/ml, 22 hours); < 20% in experiment [3]. Besides, the IC50 in experiment [2] was 2.51 µM.
`COc1ccc2c(c1)c(CC(=O)O)c(C)n2C(=O)c1ccc(Cl)cc1` [Indomethacin, indomethacin, reference compound]: the IC50 is 0.00251 µM in experiment [1] and 0.00501 µM in experiment [2]. Further, the inhibition at 0.01 µM in experiment [1] (setting [5]) is 100%; in experiment [2] (setting [5]), 100%; in experiment [3] (indomethacin at 10 nM) it was 78%.
`CCn1c(-c2ccccc2)cc2cc(NC(=O)c3ccccc3[N+](=O)[O-])ccc21` [Compound 16]: the inhibition at 10 µM in experiment [1] (IL-1β 10 ng/ml, 22 hours) was < 20%; in experiment [2] (IL-1β 10 ng/ml, 22 hours), 74%.
Regarding `CCn1c(-c2ccc(OCc3ccccc3)cc2)cc2cc(NC(=O)c3ccccc3Cl)ccc21` [Compound 22], the inhibition at 10 µM in experiment [1] (IL-1β 10 ng/ml, 22 hours) is < 20%; in experiment [2] (IL-1β 10 ng/ml, 22 hours) it was 79%.
Regarding `CCn1c(-c2ccccc2)cc2cc(NC(=O)c3cc(Cl)ccc3Cl)ccc21` [Compound 13], the inhibition at 10 µM in experiment [1] (IL-1β 10 ng/ml, 22 hours) amounted to 36%; in experiment [2] (IL-1β 10 ng/ml, 22 hours), 100%; in experiment [3], 30%. The IC50 in experiment [2] was 0.794 µM.
`CCn1c(-c2ccccc2)cc2cc(NC(=O)c3c(Cl)cccc3Cl)ccc21` [Compound 10]: the IC50 in experiment [1] is > 100 µM; in experiment [2] it was 2 µM. Moreover, the inhibition at 10 µM was < 20% in experiment [1] (IL-1β 10 ng/ml, 22 hours); 76% in experiment [2] (IL-1β 10 ng/ml, 22 hours); 22% in experiment [3].
Turning to `CCn1c(-c2cccc(F)c2)cc2cc(NC(=O)c3ccccc3Cl)ccc21` [Compound 5], the inhibition at 10 µM in experiment [1] (IL-1β 10 ng/ml, 22 hours) was determined as 36%; in experiment [2] (IL-1β 10 ng/ml, 22 hours), 91%.
For the compound `CCn1c(-c2ccccc2F)cc2cc(NC(=O)c3ccccc3Cl)ccc21` [Compound 4], the inhibition at 10 µM in experiment [1] (IL-1β 10 ng/ml, 22 hours) is < 20%; in experiment [2] (IL-1β 10 ng/ml, 22 hours), 72%.
For `CCn1c(-c2cccc3ccccc23)cc2cc(NC(=O)c3ccccc3Cl)ccc21` [Compound 24], the inhibition at 10 µM in experiment [1] (IL-1β 10 ng/ml, 22 hours) is < 20%; in experiment [2] (IL-1β 10 ng/ml, 22 hours) it was 79%.
Consider `Cn1c(-c2ccccc2)cc2cc(NC(=O)c3ccccc3Cl)ccc21` [Compound 1], for which the inhibition at 10 µM is < 20% in experiment [1] (IL-1β 10 ng/ml, 22 hours) and 63% in experiment [2] (IL-1β 10 ng/ml, 22 hours).
Turning to `CC(C)n1c(-c2ccccc2)cc2cc(NC(=O)c3ccccc3Cl)ccc21` [Compound 3], the inhibition at 10 µM came out at 34% in experiment [1] (IL-1β 10 ng/ml, 22 hours) and 91% in experiment [2] (IL-1β 10 ng/ml, 22 hours).
For `CCn1c(-c2ccccc2)c(C)c2cc(NC(=O)c3ccccc3Cl)ccc21` [Compound 7], the inhibition at 10 µM worked out at 39% in experiment [1] (IL-1β 10 ng/ml, 22 hours) and 90% in experiment [2] (IL-1β 10 ng/ml, 22 hours).
In the case of `CCn1c(-c2ccc(C)c(C)c2)cc2cc(NC(=O)c3ccccc3Cl)ccc21` [Compound 29], the inhibition at 10 µM is < 20% in experiment [1] (IL-1β 10 ng/ml, 22 hours) and 91% in experiment [2] (IL-1β 10 ng/ml, 22 hours).
For `CCn1c(-c2ccc(OC)cc2)cc2cc(NC(=O)c3ccccc3Cl)ccc21` [Compound 30], the inhibition at 10 µM was < 20% in experiment [1] (IL-1β 10 ng/ml, 22 hours) and 75% in experiment [2] (IL-1β 10 ng/ml, 22 hours).

The record behind these values is patent US8017644B2, “2-arylindole derivatives as nPGES-1 inhibitors” (Aziende Chimiche Riunite Angelini Francesco A.C.R.A.F. …, priority 2006, dated 2011).
